Measurements as given in patent US20020052317A1, “Anti-viral and anti-tumor chemotherapy by administration of erythropoeitin” (priority 2000, published 2002).

Experiments:
[1] = test system: subjects treated with REBETRON for chronic hepatitis C; conditions: either ribavirin, interferon, or both agents; cited from earlier work
[2] = test system: anemic HCV infected patients receiving combination RBV/IFN alfa-2b; assay: Open-label, randomized, parallel-group study of PROCRIT once weekly versus standard of care in hepatitis C patients on ribavirin/interferon alfa-2b; assay type: in vivo, human
[3] = test system: patients co-infected with HIV and HCV; conditions: cited from earlier work
[4] = target: T1, TNFβ (lymphotoxin α) (Homo sapiens, UniProt P01374); conditions: cited from earlier work
T1 sequence (P01374 35-205): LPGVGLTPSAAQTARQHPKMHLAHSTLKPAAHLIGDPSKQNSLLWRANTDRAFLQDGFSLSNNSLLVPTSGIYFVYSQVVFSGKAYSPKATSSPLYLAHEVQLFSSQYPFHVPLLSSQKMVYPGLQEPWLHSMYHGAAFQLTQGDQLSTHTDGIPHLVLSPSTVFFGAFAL

[5] = in vivo, 5 mg/kg; cited from earlier work
[6] = last available time point vs baseline, PROCRIT 40,000 Units qw s.c., N=22

## NC(=O)c1ncn([C@@H]2O[C@H](CO)[C@@H](O)[C@H]2O)n1 [REBETOL, 1β-D-ribofuranosyl 1H-1,2,4-Triazole-3-carboxamide]
[1]
  patients requiring a dose modification: about 26%

## Epoetin alfa [PROCRIT]
[2]; anemic patients on Ribavirin/INF-alpha, FIG. 1
  hemoglobin levels (in words): increase their hemoglobin levels to near normal levels
[2]; baseline, before PROCRIT, N=25
  Hb Range: 9.1 to 12.0 g/dL
  Mean Hb: 11 g/dL
[2]; [6]
  Change Hb Range: -1.4 to 6.2 g/dL
  Mean change Hb: 2.4 g/dL
[2]; last available time point, PROCRIT 40,000 Units qw s.c., N=22
  Hb Range: 7.7 to 16.8 g/dL
[2]; last available time point, analysis after 16 weeks, PROCRIT 40,000 Units qw s.c., N=22
  Mean Hb: 13.5 g/dL
[2]; reported even before hemoglobin levels improved
  patient well being: demonstrated better well being
[2]; throughout the study period, FIG. 2
  ability to maintain Ribavirin dosing: increased ability to maintain Ribavirin dosing
[3]; before r-HuEPO 40,000 U once weekly
  hemoglobin (Hb) value at initiation of r-HuEPO: 10 g/dL
[3]; r-HuEPO 40,000 U once weekly, after a median of four weeks
  hemoglobin (Hb) value after r-HuEPO treatment: 12.7 g/dL

## Infliximab: monoclonal antibody that blocks the biological activity of circulating TNFα
[4]
  neutralization of TNFβ (lymphotoxin α): does not neutralize
[5]
  median Cmax: 118 µg/mL
  median Vd (volume of distribution at steady state): 3.0 L
  terminal half-life: 228 h
